Consider four compounds from patent publication US8759333B2, “Di-azetidinyl diamide as monoacylglycerol lipase inhibitors” (Janssen Pharmaceutica, NV, priority 2010, dated 2014).

The test system of test [1] is murine model of acute inflammation. The note with it: murine model of acute inflammation (Comelli et al.); cited from earlier work.
The next test concerns tail flick. Particulars: intravenous delivery (Mechoulam et al.); cited from earlier work.
Another test concerns hot plate. The note with it: cited from earlier work.
Test [2] addresses T1, mutant MGL (mut-MGLL 11-313 L179S L186S) (Homo sapiens, UniProt Q99685, L169S/L176S).
T1 construct: purified mutant MGL (mut-MGLL 11-313 L179S L186S)
T1 sequence (Q99685 1-303 L169S/L176S): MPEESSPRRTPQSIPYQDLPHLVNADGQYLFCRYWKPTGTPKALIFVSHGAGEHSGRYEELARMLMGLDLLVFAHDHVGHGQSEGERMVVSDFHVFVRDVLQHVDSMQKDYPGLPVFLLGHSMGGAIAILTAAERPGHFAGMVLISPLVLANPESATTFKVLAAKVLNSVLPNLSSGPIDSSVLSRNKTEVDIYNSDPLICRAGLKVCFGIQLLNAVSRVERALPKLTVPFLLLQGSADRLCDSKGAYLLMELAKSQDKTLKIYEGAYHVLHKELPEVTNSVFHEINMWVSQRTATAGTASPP
Kind of test: MGL Enzyme Activity Assay, purified mutant MGL, 4MU-B substrate. In kind it is biochemical. The note with it: mutant MGL 5 nM, 4MU-B 10 μM, 37° C.; read-out: MGL mutant inh IC50. The gist of the method:
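Purified mutant MGL (5 nM final) with 10 μM 4MU-B in 20 mM PIPES pH 7.0, 150 mM NaCl, 0.001% Tween 20; compounds 17 to 0.0003 μM final. Fluorescence (ex 335/em 440 nm) followed 5 min at 37 °C; IC50 from fit of fractional activity versus inhibitor concentration.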

The target in test [3] is T2, wild type MGL (wt-MGLL 6H-11-313) (Homo sapiens, UniProt Q99685).
T2 construct: purified wild type MGL (wt-MGLL 6H-11-313); 6H (hexahistidine) (N)
T2 sequence (Q99685 1-303): T1 sequence (Q99685 1-303 L169S/L176S) with S169L, S176L
Kind of test: MGL Enzyme Activity Assay, purified wild type MGL, 4MU-B substrate. The test is classed as biochemical. Particulars: wild type MGL 5 nM, 4MU-B 10 μM, 37° C.; read-out: MGL wild type inh IC50. The procedure: All rate-based assays were performed in black 384-well polypropylene PCR microplates (Abgene) in a total volume of 30 μL. […] Final compound concentrations ranged from 17 to 0.0003 μM.
The IC50 values for the following compounds were determined using Microsoft Office Excel from a fit of the equation to the concentration-response plot of the fractional activity as a function of inhibitor concentration.

Another test concerns the target T3, MGL (Rattus norvegicus, UniProt Q8R431).
T3 construct: one g rat brain was homogenized using a Polytron homogenizer; from tissue; host or cells: rat brain homogenate
T3 sequence (Q8R431 1-303): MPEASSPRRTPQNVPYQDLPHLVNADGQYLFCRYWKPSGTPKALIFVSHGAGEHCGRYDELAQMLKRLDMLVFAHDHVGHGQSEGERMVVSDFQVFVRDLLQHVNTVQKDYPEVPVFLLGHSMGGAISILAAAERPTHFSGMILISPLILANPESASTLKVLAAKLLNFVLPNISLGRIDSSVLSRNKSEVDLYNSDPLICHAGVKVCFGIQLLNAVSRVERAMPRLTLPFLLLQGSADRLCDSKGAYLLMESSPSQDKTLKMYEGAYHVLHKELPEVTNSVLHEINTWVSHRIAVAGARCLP
Nature of the test: 2-AG Accumulation Assay in rat brain homogenate. Particulars: percent of vehicle; for activity at 1 µM: compound @1 µM, read-out: Rat Brain 2AG % VehCntrl (%) @1 µM. In kind it is biochemical.

For another test, the target named is T4, mutant MGL (Homo sapiens, UniProt Q99685, L169S/L176S).
T4 construct: purified mutant MGL (mut-MGLL 11-313 L179S L186S)
T4 sequence (Q99685 1-303 L169S/L176S): T1 sequence (Q99685 1-303 L169S/L176S)
Nature of the test: MGL ThermoFluor Assay - Mutant. The test is classed as binding. The note with it: 0.07 mg/ml mutant MGL, 100 μM ANS, pH 7.0. The gist of the method:
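Thermal-shift binding with 0.07 mg/ml L169S/L176S mutant MGL, 100 μM 1,8-ANS, 200 mM NaCl, 0.001% Tween-20, 50 mM PIPES pH 7.0, heated 40–90 °C at 1 °C/min.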
(In DSF a fluorescence change marks the thermal transition of the protein.)

Test [4] relates to CFA-Induced Paw Radiant Heat Hypersensitivity. Nature of the test: CFA-Induced Paw Radiant Heat Hypersensitivity. In kind it is in vivo. Particulars: rat, HPβCD; for Method 2: peak % reversal: individual animal values. The protocol: Each rat was placed in a test chamber on a warm glass surface and allowed to acclimate for approximately 10 min. A radiant thermal stimulus (beam of light) was focused through the glass onto the plantar surface of each hind paw in turn. The thermal stimulus was automatically shut off by a photoelectric relay when the paw was moved or when the cut-off time was reached (20 sec for radiant heat at ˜5 amps). An initial (baseline) response latency to the thermal stimulus was recorded for each animal prior to the injection of complete Freund's adjuvant (CFA). Twenty-four hours following intraplantar CFA injection, the response latency of the animal to the thermal stimulus was re-evaluated and compared to the animal's baseline response time. […] Immediately following the post-CFA latency assessment, the indicated test compound or vehicle was administered orally. Post-compound treatment withdrawal latencies were assessed at fixed time intervals, typically 30, 60, 120, 180, and 300 min.
The percent reversal (% R) of hypersensitivity was calculated in one of two different ways:
1) using group mean values or 2) using individual animal values. More specifically:
Method 1. For all compounds, the % R of hypersensitivity was calculated using the mean value for groups of animals at each time point according to the following formula: % reversal=[(group treatment response−group CFA response)/(group baseline response−group CFA response)]×100 Results were given for the maximum % reversal observed for each compound at any time point tested.
Method 2. For some compounds, the % R of hypersensitivity was calculated separately for each animal according to the following formula: % reversal=[(individual treatment response−individual CFA response)/(individual baseline response−individual CFA response)]×100.
Results are given as a mean of the maximum % reversal values calculated for each individual animal.

Where [5] appears, read: po, 5 h, 30 mg/kg p.o., group mean values, last time point 300 min (180 min for Cpd 17, 77), read-out: Method 1: peak % reversal.

The structures appear in SMILES notation. Substitutions are numbered along the chain they refer to.

Consider `O=C(Nc1cccc(-c2ccccc2)c1)OC1CCCCC1` [URB602], for which the antinociceptive effect result in test [1] is listed as “showed an antinociceptive effect”.
For `CCCCC/C=C\C/C=C\C/C=C\C/C=C\CCCC(=O)OC(CO)CO` [2-AG, 2-arachidinoylglycerol], in the test on tail flick, the “analgesia in tail flick assay” value is given as “produces analgesia”. The “analgesia in hot plate assay, given alone” value with hot plate (2-AG given alone (Ben-Shabat et al.)) is reported as “not analgesic”. Also, the “analgesia in hot plate assay” value in the test with hot plate (intravenous delivery (Lichtman et al.)) was “produces analgesia”.
For the compound `O=C(c1ccc(-c2ccc(C(F)(F)F)s2)cc1)N1CC(N2CC(N3Cc4ccccc4C3=O)C2)C1` [Cpd 76, 2-[1′-({4-[5-(Trifluoromethyl)thiophen-2-yl]phenyl}carbonyl)-1,3′-biazetidin-3-yl]-2,3-dihydro-1H-isoindol-1-one], the IC50 in test [2] was 15 nM; in test [3], under 5 nM. Moreover, the activity at 1 µM at MGL is 204%. Also, on MGL (compound @10 µM, read-out: Rat Brain 2AG % VehCntrl (%) @10 µM), the activity at 10 µM stood at 725%. The Kd on mutant MGL is 10 nM. Also, in test [4] (po, 5 h, 10 mg/kg p.o., group mean values, last time point 300 min, read-out: Method 1: peak % reversal), the inhibition in vivo at 10 mg/kg turned out to be 15.7%. Also, the inhibition in vivo at 30 mg/kg in test [4] (setting [5]) is 17.1%. Besides, the “Method 2: peak % reversal” value in test [4] (10 mg/kg p.o., last time point 300 min) was found to be 26.7%; in test [4] (30 mg/kg p.o., last time point 300 min (180 min for Cpd 17, 77)), 17.7%.
In the case of `O=C(c1sc2cc(C(F)(F)F)ccc2c1Cl)N1CC(N2CC(N3Cc4ccccc4C3=O)C2)C1` [Cpd 99, 2-(1′-{[3-Chloro-6-(trifluoromethyl)-1-benzothiophen-2-yl]carbonyl}-1,3′-biazetidin-3-yl)-2,3-dihydro-1H-isoindol-1-one], the IC50 in test [2] and in test [3] was under 5 nM each time. Besides, the activity at 1 µM on MGL turned out to be 449%. For the same compound, at mutant MGL, binding was put at a Kd of 2.7 nM. Also, the inhibition in vivo at 30 mg/kg in test [4] (setting [5]) was found to be 27.6%.

The term IC50 denotes the concentration that gives 50% inhibition. What is called Kd is the concentration at which binding is half-saturated. A high value points to weaker binding.
